Assay results published in patent US10428017B2, “Modulators of the cystic fibrosis transmembrane conductance regulator protein and methods of use” (AbbVie S.à.r.l., priority 2017, dated 2019).
Read-outs that look alike come from different tables or passages of the source.

Target: T1, F508delCFTR (Homo sapiens, UniProt P13569, DEL508-508)
T1 construct: expressed in transfected cells; host or cells: CFBE4lo-F508delCFTR-HRP cells (human lung derived epithelial cell line, doxycycline-inducible)
Test: Cell Surface Expression-Horse Radish Peroxidase (CSE-HRP) Assay
Assay type: cell-based
Conditions: for EC50: CFBE4lo-F508delCFTR-HRP cells, 18-24 hours at 33° C.; for Maximum % activity (with co-corrector): with co-corrector 2 μM
Protocol: Cell Surface Expression-Horse Radish Peroxidase (CSE-HRP) Assay
A cellular assay for measuring the F508delCFTR cell surface expression after correction with test compounds either without or with a co-corrector (2 μM of 3-[(2R,4R)-4-({[1-(2,2-difluoro-1,3-benzodioxol-5-yl)cyclopropyl]carbonyl}amino)-7-methoxy-3,4-dihydro-2H-chromen-2-yl]benzoic acid), was developed in human lung derived epithelial cell line (CFBE4lo−) (Veit G et al, (2012) Mol Biol Cell. 23(21): 4188-4202). The development was achieved by expressing the F508delCFTR mutation along with a horseradish peroxidase (HRP) in the fourth exofacial loop, and then measuring the HRP activity using luminescence readout from these cells, CFBE4lo-F508delCFTR-HRP, that were incubated overnight with the test corrector compounds, either without or with the co-corrector. For this primary assay, the CFBE4lo-F508delCFTR-HRP cells were plated in 384-well plates (Greiner Bio-one; Cat 781080) at 4,000 cells/well along with 0.5 μg/mL doxycycline to induce the F508delCFTR-HRP expression and further incubated at 37° C., 5% CO2 for 72 hours. The test compounds were then added either without or with a co-corrector at the required concentrations and further incubated for 18-24 hours at 33° C. The highest concentration tested was 20 μM with an 8-point concentration response curve using a 3-fold dilution in both the test compound without or with the co-corrector. Three replicate plates were run to determine one EC50. All plates contained negative controls (dimethyl sulfoxide, DMSO) and positive control (2 μM of 3-[(2R,4R)-4-({[1-(2,2-difluoro-1,3-benzodioxol-5-yl)cyclopropyl]carbonyl}amino)-7-methoxy-3,4-dihydro-2H-chromen-2-yl]benzoic acid) as well as on-plate concentration response of the positive control. Post incubation, the plates were washed 5× times with Dulbecco's phosphate buffered saline (DPBS), followed by the addition of the HRP substrate, luminol (50 μL), and measuring the HRP activity using luminescence readout on EnVision® Multilabel Plate Reader (Perkin Elmer; product number 2104-0010). The raw counts from the experiment were analyzed using Accelrys® Assay Explorer v3.3.
Z′ greater than 0.5 was used as passing quality control criteria for the plates.
The Z′ is defined as: 1−[3*SDPositive Control+3*SDNegative Control/Absolute(Meanpostivie Control−MeanNegative Control)] wherein “SD” is standard deviation.
The % activity measured at each of the 8 test concentrations of the test compound added either without or with a co-corrector (2 μM of 3-[(2R,4R)-4-({[1-(2,2-difluoro-1,3-benzodioxol-5-yl)cyclopropyl]carbonyl}amino)-7-methoxy-3,4-dihydro-2H-chromen-2-yl]benzoic acid) was normalized to the on-plate positive control using the following formulae: % activity(Test compound without co-corrector)=[(test compound without co-corrector response−DMSO response)/(positive control response−DMSO response)]*100 % activity(Test compound with co-corrector)=[(test compound with co-corrector response−DMSO response)/(positive control response−DMSO response)]*100
The maximum % activity achieved for the test compound either without or with a co-corrector at any tested concentration is presented in Table 1 along with the respective EC50's calculated using the following general sigmoidal curve with variable Hill slope equation (described as Model 42 in the Accelrys® Assay Explorer v3.3 software): y=(a−d)/(1+(x/c)^b)+d
General sigmoidal curve with concentration, response, top, bottom, EC50 and Hill slope. This model describes a sigmoidal curve with an adjustable baseline, a. The equation can be used to fit curves where response is either increasing or decreasing with respect to the independent variable, “x”.
“x” is a concentration of drug under test.
“a” is the maximum response, and “d” is the minimum response
“c” is the inflection point (EC50) for the curve. That is, “y” is halfway between the lower and upper asymptotes when x=c.
“b” is the slope-factor or Hill coefficient. […]

[1] = test compound without co-corrector, HRP luminescence readout, read-out: EC50 (without co-corrector)
[2] = test compound without co-corrector, maximum at any tested concentration (up to 20 μM), normalized to on-plate positive control (2 μM co-corrector)
[3] = with co-corrector 2 μM 3-[(2R,4R)-4-({[1-(2,2-difluoro-1,3-benzodioxol-5-yl)cyclopropyl]carbonyl}amino)-7-methoxy-3,4-dihydro-2H-chromen-2-yl]benzoic acid, read-out: EC50 (with co-corrector)
[4] = maximum at any tested concentration (up to 20 μM), normalized to on-plate positive control (2 μM co-corrector)

T1 sequence (P13569 with tags, fused parts or gaps DEL508-508): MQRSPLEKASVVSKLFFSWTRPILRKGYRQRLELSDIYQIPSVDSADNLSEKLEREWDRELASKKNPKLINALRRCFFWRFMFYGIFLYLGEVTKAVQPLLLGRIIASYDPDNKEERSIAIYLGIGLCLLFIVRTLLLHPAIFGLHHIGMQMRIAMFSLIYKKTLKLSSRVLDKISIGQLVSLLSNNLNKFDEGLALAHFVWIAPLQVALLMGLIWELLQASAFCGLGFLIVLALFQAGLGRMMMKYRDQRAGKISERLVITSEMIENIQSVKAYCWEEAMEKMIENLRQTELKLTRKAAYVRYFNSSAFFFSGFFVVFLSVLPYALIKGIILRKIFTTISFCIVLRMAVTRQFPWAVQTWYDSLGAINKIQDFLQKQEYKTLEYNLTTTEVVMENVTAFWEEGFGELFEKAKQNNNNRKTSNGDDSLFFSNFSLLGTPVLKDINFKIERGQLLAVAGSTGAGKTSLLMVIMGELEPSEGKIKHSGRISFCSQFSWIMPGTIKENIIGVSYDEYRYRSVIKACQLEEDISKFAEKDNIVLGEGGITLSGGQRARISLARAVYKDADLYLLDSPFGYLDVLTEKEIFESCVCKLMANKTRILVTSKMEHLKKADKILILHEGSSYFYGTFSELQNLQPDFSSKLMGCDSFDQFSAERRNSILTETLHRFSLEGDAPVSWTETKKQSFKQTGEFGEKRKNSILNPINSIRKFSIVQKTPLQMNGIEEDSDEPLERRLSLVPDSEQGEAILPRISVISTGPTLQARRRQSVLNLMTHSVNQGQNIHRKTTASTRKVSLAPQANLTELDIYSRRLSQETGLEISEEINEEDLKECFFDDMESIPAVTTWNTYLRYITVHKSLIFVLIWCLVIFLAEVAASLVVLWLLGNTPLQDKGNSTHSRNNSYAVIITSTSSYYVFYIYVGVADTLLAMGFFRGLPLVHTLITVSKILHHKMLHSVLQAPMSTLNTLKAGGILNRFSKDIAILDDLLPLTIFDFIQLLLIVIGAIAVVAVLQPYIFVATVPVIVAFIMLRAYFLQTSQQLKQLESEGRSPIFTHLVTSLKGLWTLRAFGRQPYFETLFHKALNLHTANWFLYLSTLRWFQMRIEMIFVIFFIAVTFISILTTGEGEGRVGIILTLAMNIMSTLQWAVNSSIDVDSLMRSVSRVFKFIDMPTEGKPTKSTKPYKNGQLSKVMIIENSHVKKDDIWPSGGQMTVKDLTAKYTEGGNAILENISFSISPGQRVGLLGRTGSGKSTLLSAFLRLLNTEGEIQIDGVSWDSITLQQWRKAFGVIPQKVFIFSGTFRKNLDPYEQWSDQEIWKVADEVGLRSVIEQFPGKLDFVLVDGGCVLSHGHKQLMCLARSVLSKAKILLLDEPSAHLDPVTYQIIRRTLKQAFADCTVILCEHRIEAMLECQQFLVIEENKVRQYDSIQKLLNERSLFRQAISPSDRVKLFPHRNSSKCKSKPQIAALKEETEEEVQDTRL

EC50 [1] [µM]	Emax [2] [%]	EC50 [3] [µM]	Maximum % activity (with co-corrector) [4]	Molecule	Maximum % activity (without co-corrector) [2]
< 3	≥ 150	< 3	+++ (≥350)	COc1ccc(Cl)c2c1C(C(=O)NS(=O)(=O)c1cccc3ccccc13)CC(C)(C)O2 (stereo not shown) [Example 51, 8-chloro-5-methoxy-2,2-dimethyl-N-(naphthalene-1-sulfonyl)-3,4-dihydro-2H-1-benzopyran-4-carboxamide]	–
< 3	≥ 150	< 3	+++ (≥350)	COc1ccc(C2CCC2)c2c1[C@@H](C(=O)NS(=O)(=O)c1cccc3c1CCCN3)CC(C)(C)O2 [Example 96, (4S)-8-cyclobutyl-5-methoxy-2,2-dimethyl-N-(1,2,3,4-tetrahydroquinoline-5-sulfonyl)-3,4-dihydro-2H-1-benzopyran-4-carboxamide]	–
< 3	≥ 150	< 3	+++ (≥350)	O=C(NS(=O)(=O)c1cccc2ccccc12)C1(c2ccccc2)CCOc2ccc(Br)cc21 (stereo not shown) [Example 1, 6-bromo-N-(naphthalene-1-sulfonyl)-4-phenyl-3,4-dihydro-2H-1-benzopyran-4-carboxamide]	–
< 3	≥ 150	< 3	+++ (≥350)	COc1ccc(C2CCC2)c2c1OCC[C@H]2C(=O)NS(=O)(=O)c1cccc2ncccc12 (single isomer, unassigned) [Example 106]	–
< 3	≥ 150	< 3	+++ (≥350)	COc1ccc(C2CCC2)c2c1[C@H](C(=O)NS(=O)(=O)c1cccc3c1CCCN3)CC(C)(C)O2 (single isomer, unassigned) [Example 97]	–
3 to 10	≥ 150	3 to 10	+++ (≥350)	COc1ccc(C2CCC2)c2c1[C@@H](C(=O)NS(=O)(=O)c1cccc3c1CCCN3)CCO2 [Example 91, (4S)-8-cyclobutyl-5-methoxy-N-(1,2,3,4-tetrahydroquinoline-5-sulfonyl)-3,4-dihydro-2H-1-benzopyran-4-carboxamide]	–
≥ 10	< 50	≥ 10	+ (<150)	CC(C)c1ccc(S(=O)(=O)NC(=O)C2(C)Cc3ccccc3O2)cc1 (stereo not shown) [Example 26, 2-methyl-N-[4-(propan-2-yl)benzene-1-sulfonyl]-2,3-dihydro-1-benzofuran-2-carboxamide]	–
3 to 10	≥ 150	< 3	+++ (≥350)	COc1ccc(C2CCC2)c2c1C(C(=O)NS(=O)(=O)c1cccc3c1NCCC3)CO2 (stereo not shown) [Example 90, 7-cyclobutyl-4-methoxy-N-(1,2,3,4-tetrahydroquinoline-8-sulfonyl)-2,3-dihydro-1-benzofuran-3-carboxamide]	–
3 to 10	≥ 150	< 3	+++ (≥350)	COc1ccc(Cl)c2c1[C@H](C(=O)NS(=O)(=O)c1cccc3ccccc13)CO2 (single isomer, unassigned) [Example 68]	–
≥ 10	< 50	≥ 10	+ (<150)	Cc1ccccc1S(=O)(=O)NC(=O)C1(C)Cc2ccccc2O1 (stereo not shown) [Example 16, 2-methyl-N-(2-methylbenzene-1-sulfonyl)-2,3-dihydro-1-benzofuran-2-carboxamide]	–
< 3	≥ 150	< 3	+++ (≥350)	COc1ccc(C2CCCC2)c2c1C(C(=O)NS(=O)(=O)c1cccc3ccccc13)CCO2 (stereo not shown) [Example 14, 8-cyclopentyl-5-methoxy-N-(naphthalene-1-sulfonyl)-3,4-dihydro-2H-1-benzopyran-4-carboxamide]	–
3 to 10	≥ 150	3 to 10	+++ (≥350)	COc1ccc(C2CCC2)c2c1[C@@H](C(=O)NS(=O)(=O)c1cccc3ccccc13)CCO2 [Example 55, (4S)-8-cyclobutyl-5-methoxy-N-(naphthalene-1-sulfonyl)-3,4-dihydro-2H-1-benzopyran-4-carboxamide]	–
< 3	≥ 150	< 3	+++ (≥350)	COc1ccc(C2CCC2)c2c1[C@@H](C(=O)NS(=O)(=O)c1cccc3ccccc13)CO2 [Example 66, (3R)-7-cyclobutyl-4-methoxy-N-(naphthalene-1-sulfonyl)-2,3-dihydro-1-benzofuran-3-carboxamide]	–
≥ 10	< 50	≥ 10	+ (<150)	Cc1ccccc1S(=O)(=O)NC(=O)C1COc2ccccc21 (stereo not shown) [Example 29, N-(2-methylbenzene-1-sulfonyl)-2,3-dihydro-1-benzofuran-3-carboxamide]	–
< 3	≥ 150	< 3	+++ (≥350)	COc1ccc2c(c1)C(C(=O)NS(=O)(=O)c1cccc3ccccc13)(c1ccccc1)CC(C)(C)O2 (stereo not shown) [Example 3, 6-methoxy-2,2-dimethyl-N-(naphthalene-1-sulfonyl)-4-phenyl-3,4-dihydro-2H-1-benzopyran-4-carboxamide]	–
< 3	≥ 150	< 3	+++ (≥350)	COc1ccc(Br)c2c1C(C(=O)NS(=O)(=O)c1cccc3ccccc13)OCC2 (stereo not shown) [Example 78, 5-bromo-8-methoxy-N-(naphthalene-1-sulfonyl)-3,4-dihydro-1H-2-benzopyran-1-carboxamide]	–
< 3	≥ 150	< 3	+++ (≥350)	COc1ccc(C2CCC2)c2c1C(C(=O)NS(=O)(=O)c1cccc3ncccc13)CO2 (stereo not shown) [Example 80, 7-cyclobutyl-4-methoxy-N-(quinoline-5-sulfonyl)-2,3-dihydro-1-benzofuran-3-carboxamide]	–
< 3	≥ 150	< 3	+++ (≥350)	COc1ccc(C2CCC2)c2c1C(C(=O)NS(=O)(=O)c1cccc3ccccc13)CCO2 (stereo not shown) [Example 13, 8-cyclobutyl-5-methoxy-N-(naphthalene-1-sulfonyl)-3,4-dihydro-2H-1-benzopyran-4-carboxamide]	–

Molecule	EC50 [1] [µM]	Emax [2] [%]	EC50 [3] [µM]	Maximum % activity (with co-corrector) [4]	Maximum % activity (without co-corrector) [2]
4-methoxy-N-(naphthalene-1-sulfonyl)-5-(trifluoromethyl)-2,3-dihydro-1-benzofuran-3-carboxamide and 4-methoxy-N-(naphthalene-1-sulfonyl)-7-(trifluoromethyl)-2,3-dihydro-1-benzofuran-3-carboxamide [Example 40]	< 3	–	< 3	+++ (≥350)	+++ (≥150)
